Experimental data taken from patent US6831075B2, “Heterocyclic substituted pyrazolones” (Cephalon, Inc., priority 1999, dated 2004).

Molecular target: T1, recombinant human baculoviral VEGFR2 cyctoplasmic domain (Homo sapiens, UniProt P35968)
T1 construct: recombinant human baculoviral VEGFR2 cyctoplasmic domain; host or cells: baculovirus expression system
Assay: VEGFR2 kinase inhibition assay (ELISA-based, time-resolved fluorescence)
Format: biochemical
Conditions: 1 uM compound; 30 μM ATP; read-out: VEGFR-2 kinase % inhibition @ 1 uM
Experimental: Inhibition of Vascular Endothelial Growth Factor Receptor-2 Kinase Activity
Assay were performed as described for trkA kinase below. The 96-well microtiter plate (FluoroNUNC Maxisorp) was coated with 40 μg/ml recombinant human phospholipase C-γ1/glutathione S-transferase fusion protein. Inhibition studies were performed in 100 μl assay mixtures containing 50 mM HEPES, pH 7.4, 30 μM ATP, 10 mM MnCl2, 0.1% BSA, 2% DMSO, and 1 μM of test compound. The reaction was initiated by adding prephosphorylated recombinant human baculoviral VEGFR2 cyctoplasmic domain. The reaction was allowed to proceed for 15 minutes at 37° C. The detection antibody, eurpium-labeled anti-phosphotyrosine antibody (Wallac #CR04-100), was added at 1:5000 dilution in block buffer (3% BSA in TBST).

T1 sequence (P35968 786-1356 limits assumed): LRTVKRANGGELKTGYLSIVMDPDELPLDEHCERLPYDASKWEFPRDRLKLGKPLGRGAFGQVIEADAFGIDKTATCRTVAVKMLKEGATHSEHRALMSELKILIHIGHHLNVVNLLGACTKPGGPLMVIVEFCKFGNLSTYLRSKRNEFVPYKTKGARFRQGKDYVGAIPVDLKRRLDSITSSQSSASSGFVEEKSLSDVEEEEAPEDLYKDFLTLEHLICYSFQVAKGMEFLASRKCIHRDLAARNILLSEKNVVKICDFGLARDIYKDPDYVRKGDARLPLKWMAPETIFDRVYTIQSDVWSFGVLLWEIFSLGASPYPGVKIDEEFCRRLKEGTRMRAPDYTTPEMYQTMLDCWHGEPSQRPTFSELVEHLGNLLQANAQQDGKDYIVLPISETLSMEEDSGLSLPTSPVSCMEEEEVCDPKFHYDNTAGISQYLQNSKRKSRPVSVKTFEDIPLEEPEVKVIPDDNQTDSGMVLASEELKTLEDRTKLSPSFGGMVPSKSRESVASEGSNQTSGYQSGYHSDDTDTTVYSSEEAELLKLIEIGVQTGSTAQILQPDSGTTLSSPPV

**Q.** With `Cc1cc(C)c(C=C2C(=O)NN=C2c2c[nH]c3ccccc23)[nH]1` [Compound 76, 4-[(3,5-dimethylpyrrol-2-yl)methylene]-3-indol-3-yl-2-pyrazolin-5-one] as the molecule, how does the inhibition at 1 µM read?
**A.** 39%

**Q.** With `Cc1cc(C)c(CC2C(=O)NN=C2c2c[nH]c3ccccc23)[nH]1` (centres unmarked) [Compound 77, 4-[(3,5-dimethylpyrrol-2-yl)methyl]-3-indol-3-yl-2-pyrazolin-5-one] as the molecule, how does the inhibition at 1 µM read?
**A.** 21%
